Source: US20260258050A1, “IMMUNOMODULATOR” (HITGEN INC., priority 2023, published 2026)

Tests used:
Human IL-17AF = molecular target: T1, Human IL-17AF (Homo sapiens, UniProt Q16552+Q96PD4); assay: IL-17AF ELISA (competitive ELISA, IL-17AF/IL-17Ra receptor-ligand binding); details: human IL-17AF coated plate, human IL-17Ra, read-out: IC50, inhibitory activity of compounds on human IL-17AF
T1 construct: purchased Sino Biological Inc. CT047-H08H
T1 sequence (Q16552 24-155): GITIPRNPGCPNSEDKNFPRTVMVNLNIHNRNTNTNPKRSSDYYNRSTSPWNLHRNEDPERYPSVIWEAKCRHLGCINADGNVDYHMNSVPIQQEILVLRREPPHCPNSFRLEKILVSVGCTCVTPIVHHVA
T1 sequence (Q96PD4 31-163): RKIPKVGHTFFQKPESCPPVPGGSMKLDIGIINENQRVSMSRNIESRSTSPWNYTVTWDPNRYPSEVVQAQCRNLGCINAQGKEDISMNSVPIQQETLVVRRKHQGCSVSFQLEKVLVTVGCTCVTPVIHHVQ
Experimental: Experiment Example 2 IL-17AF ELISA
The inhibitory effects of human IL-17AF inhibitors on receptor-ligand binding were quantitatively determined by a competitive ELISA.
The ELISA was performed through the following steps.
Human IL-17AF (Sino Biological Inc., Cat #CT047-H08H) was diluted with coating buffer (50 mM PBS, pH 7.4) to reach a concentration of 0.625 μg/ml. 100 μL of the resulting solution was added to each well of a 96-well plate, and the plate was incubated at 37° C. for 30 min. In the blank group, 100 μL of coating buffer was added instead of the IL-17AF solution.
The plate was washed four times with 10 mM PBST (pH 7.4). 200 μL was used per well for each wash. After the final wash, the plate was tapped dry on absorbent paper.
Fresh 5% (w/v) skim milk solution was prepared before the experiment. For example, 5 grams of skim milk powder (Bio-Rad, Cat #170-6404) was completely dissolved in 100 mL of 10 mM PBST. 200 μL of the 5% (w/v) skim milk solution was added to each well, and the plate was incubated on a shaker at 25° C. for 30 min.
(S4) Preparation of 100× to-be-Tested Compound Solutions
During step (S3), the to-be-tested compound solutions were prepared. Each powdered compound was dissolved in dimethyl sulfoxide (DMSO) to reach a stock concentration of 10 mM. The to-be-tested compound solutions were then serially diluted four-fold with DMSO to obtain nine concentrations ranging from […].
(S6) Pre-Incubation of IL-17AF with to-be-Tested Compound Solutions
89 μL of PBST and 1 μL of each of the to-be-tested compound solutions were added to each well and mixed. The plate was pre-incubated at 25° C. for 10 min. In the blank group and the control group, 1 μL of DMSO was added instead of the to-be-tested compound solutions.
(S7) Incubation with Human IL-17Ra
10 μL of 100 nM IL-17Ra (Sino Biological Inc., Cat #10895-H03H) was added to each well, followed by incubation on a shaker at 25° C. for 30 min. The receptor solution was prepared in 10 mM PBST.
(S9) Incubation with Horseradish Peroxidase-Conjugated Antibody
100 μL of mouse anti-Fc tag HRP-conjugated antibody (Sino Biological Inc., Cat #10702-MM01T-H) was added to each well. The plate was incubated on a shaker at 25° C. for 30 min. The antibody was diluted with 5% (w/v) skim milk solution at 1:5,000 (v/v).
100 μL of TMB substrate solution (BD, Cat #555214) was added to each well. Substrate A and substrate B were freshly mixed at a volume ratio of 1:1 before use. The plate was incubated in the dark at 25° C. for 5-15 min.
(S12) Termination and Detection
The color reaction was terminated by addition of 2.5 M HCl. Absorbance was measured at 450 nm using a BMG PHERStar microplate reader.
(S13) Calculation of Half-Maximal Inhibitory Concentration (IC50)
The relative percent residual activity at each compound concentration was calculated according to Equation 1. The IC50 value of each test compound was then calculated in GraphPad 6 using the equation for log(inhibitor) versus normalized response with variable slope, as shown in Equation 2.
relative percent residual activity (%)=[(absorbance of sample−absorbance of blank group)/(absorbance of control group−absorbance of blank group)]%. Equation 1: […]
The compounds prepared in the Examples were tested for IL-17AF inhibitory activity according to the above method.

Human IL-17A [1] = molecular target: T2, Human IL-17A (Homo sapiens, UniProt Q16552); assay: IL-17A enzyme-linked immunosorbent assay (competitive ELISA, IL-17A/IL-17Ra receptor-ligand binding); design: purchased Sino Biological Inc. 12047-H07B; details: human IL-17A coated plate, human IL-17Ra, read-out: IC50, inhibitory activity of compounds on human IL-17A
T2 sequence (Q16552 20-155 limits assumed): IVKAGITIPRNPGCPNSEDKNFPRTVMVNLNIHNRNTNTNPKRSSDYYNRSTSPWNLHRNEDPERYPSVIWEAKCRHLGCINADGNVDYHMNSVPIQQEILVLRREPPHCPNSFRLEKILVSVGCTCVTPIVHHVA
In short: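 Competitive ELISA with plates coated with human IL-17A at 0.2 μg/ml, blocked with 5% skim milk. Compound pre-incubated with IL-17A 10 min at 25 °C, then 16 nM IL-17Ra stock added for 30 min. Bound receptor detected by anti-Fc HRP/TMB, A450. IC50 from variable-slope fit of blank-corrected residual activity.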

Human IL-17A [2] = molecular target: T2, Human IL-17A; assay: Inhibition of human IL-17A protein-induced GROα/CXCL1 production in HT-29 cells; type: cell-based; design: purchased R&D 317-ILB; host or cells: added exogenously to HT-29 cells; details: 30 ng/mL human IL-17A protein, 48 h, GROα in supernatant by ELISA kit, read-out: Inhibitory IC50 of compounds on HT-29 cell GROα/CXCL1
Experimental: Experiment Example 3 Inhibition of Human IL-17A Protein-Induced GROα/CXCL1 Production in HT-29 Cells by Compounds
This assay was conducted to evaluate the ability of the compounds to inhibit human IL-17A protein-induced production of the chemokine growth-regulated oncogene alpha/C-X-C motif chemokine ligand 1 (GROα/CXCL1) in HT-29 cells.
Human colorectal adenocarcinoma epithelial HT-29 cells (Chengdu Zhongyuan Gongchuang Technology Co., Ltd.) were seeded into a 96-well plate at a density of 5×10^4 cells per well and were cultured overnight in an incubator at 37° C.
30 ng/mL of human IL-17A protein (R&D, #317-ILB) was mixed with gradient concentrations of the IL-17A small-molecule inhibitor, or with […] of a positive control IL-17A antibody (R&D, #AF-317-NA). These mixtures were incubated at 37° C. for 1 h and were then added to the plate. The mixtures were co-incubated with the HT-29 cells at 37° C. for 48 h. Thereafter, the level of GROα in the cell culture supernatant was determined using a GROα ELISA kit (Cisbio, #62HCXC1PEG).
The inhibitory activity of each compound was expressed as the half-maximal inhibitory concentration (IC50) for inhibition of GROα/CXCL1 production in HT-29 cells.

IC50 (Human IL-17AF) [nM] | IC50 (Human IL-17A [1]) [nM] | IC50 (Human IL-17A [2]) [nM] | Structure (SMILES)
100 to 500 | ≤ 50 | – | CCn1nccc1C(=O)N[C@H](C(=O)Nc1cc2c(cc1F)-c1c(n[nH]c1C)CC(C)OC2)C(C1CC1)C1CC1 (single isomer, unassigned) [compound 119a]
100 to 500 | ≤ 50 | – | CCn1nccc1C(=O)N[C@H](C(=O)Nc1cc2c(cc1F)-c1c(n[nH]c1C)CC(C)OC2)C(C1CC1)C1CC1 (single isomer, unassigned) [compound 119b]
100 to 500 | ≤ 50 | – | Cc1[nH]nc2c1-c1cc(F)c(NC(=O)[C@@H](NC(=O)c3ccnn3C(C)C)C(C3CC3)C3CC3)cc1CN(C(C)C(F)(F)F)C(=O)C2 (single isomer, unassigned) [compound 186b]
100 to 500 | 50 to 150 | – | [2H]C([2H])([2H])n1nccc1C(=O)N[C@H](C(=O)Nc1ccc2c(c1)COCCc1n[nH]c(C)c1-2)C(C1CC1)C1CC1 [compound 7]
100 to 500 | 50 to 150 | – | CCn1nccc1C(=O)N[C@H](C(=O)Nc1ccc2c(c1)COCCc1n[nH]c(C)c1-2)C1CCCCC1 [compound 8]
100 to 500 | ≤ 50 | – | CCn1nccc1C(=O)N[C@H](C(=O)Nc1ccc2c(c1)COCCc1n[nH]c(C)c1-2)C1c2ccc(F)cc2OCC12CC2 (some centres unmarked) [compound 9]
100 to 500 | ≤ 50 | – | CCn1nccc1C(=O)N[C@H](C(=O)Nc1ccc2c(c1)COCCc1n[nH]c(C)c1-2)[C@H]1CC[C@H](C)CC1 [compound 10]
100 to 500 | ≤ 50 | – | Cc1[nH]nc2c1-c1cc(F)c(NC(=O)[C@@H](NC(=O)c3ccnn3C3CC3)C(C3CC3)C3CC3)cc1COCC2 [compound 19]
100 to 500 | 50 to 150 | – | Cc1[nH]nc2c1-c1ccc(NC(=O)[C@@H](NC(=O)c3ccnn3C(C)C)C(C3CC3)C3CC3)cc1CN(C)CC2 [compound 24]
100 to 500 | 50 to 150 | – | CCn1nccc1C(=O)N[C@H](C(=O)Nc1ccc2c(c1)CN(C)CCc1n[nH]c(C)c1-2)C(C1CC1)C1CC1 [compound 25]
100 to 500 | 50 to 150 | – | Cc1[nH]nc2c1-c1ccc(NC(=O)[C@@H](NC(=O)c3ccnn3C)C(C3CC3)C3CC3)cc1CN(C)CC2 [compound 26]
≤ 100 | ≤ 50 | – | CCc1nocc1C(=O)N[C@H](C(=O)Nc1cc2c(cc1F)-c1c(n[nH]c1C)CCOC2)C(C1CC1)C1CC1 [compound 33]
≤ 100 | ≤ 50 | – | Cc1[nH]nc2c1-c1cc(F)c(NC(=O)[C@@H](NC(=O)c3conc3C3CC3)C(C3CC3)C3CC3)cc1COCC2 [compound 34]
100 to 500 | ≤ 50 | – | Cc1[nH]nc2c1-c1cc(F)c(NC(=O)[C@@H](NC(=O)c3conc3C(C)C)C(C3CC3)C3CC3)cc1COCC2 [compound 35]
100 to 500 | ≤ 50 | – | COCCn1nccc1C(=O)N[C@H](C(=O)Nc1cc2c(cc1F)-c1c(n[nH]c1C)CCOC2)C(C1CC1)C1CC1 [compound 57]
100 to 500 | 50 to 150 | – | Cc1[nH]nc2c1-c1cc(F)c(NC(=O)[C@@H](NC(=O)c3ccnn3CC(C)(C)F)C(C3CC3)C3CC3)cc1COCC2 [compound 82]
100 to 500 | ≤ 50 | – | Cc1[nH]nc2c1-c1cc(F)c(NC(=O)[C@@H](NC(=O)c3ccnn3CC(F)(F)F)C(C3CC3)C3CC3)cc1COCC2 [compound 94]
100 to 500 | 50 to 150 | – | Cc1[nH]nc2c1-c1cc(F)c(NC(=O)[C@@H](NC(=O)c3ccnn3CCN3CCOCC3)C(C3CC3)C3CC3)cc1COCC2 [compound 97]
100 to 500 | ≤ 50 | – | CCn1nccc1C(=O)N[C@H](C(=O)Nc1cc2c(cc1F)-c1c(n[nH]c1C)CC(C)(C)OC2)C(C1CC1)C1CC1 [compound 117]
100 to 500 | 50 to 150 | – | Cc1[nH]nc2c1-c1cc(F)c(NC(=O)[C@@H](NC(=O)c3ccnn3C)C(C3CC3)C3CC3)cc1CN(C)C(=O)C2 [compound 134]
≤ 100 | – | 100 to 500 | COCCN1Cc2cc(NC(=O)[C@@H](NC(=O)c3ccnn3C(C)C)C(C3CC3)C3CC3)c(F)cc2-c2c(n[nH]c2C)CC1=O [compound 137]
≤ 100 | – | 100 to 500 | CCn1nccc1C(=O)N[C@H](C(=O)Nc1cc2c(cc1F)-c1c(n[nH]c1C)CC(=O)N(CCOC)C2)C(C1CC1)C1CC1 [compound 138]
100 to 500 | – | – | COCCN1Cc2cc(NC(=O)[C@@H](NC(=O)c3ccnn3C3CC3)C(C3CC3)C3CC3)c(F)cc2-c2c(n[nH]c2C)CC1=O [compound 139]
100 to 500 | ≤ 50 | – | Cc1[nH]nc2c1-c1cc(F)c(NC(=O)[C@@H](NC(=O)c3ccnn3C(C)C)C(C3CC3)C3CC3)cc1CN(C)CC2 [compound 154]
100 to 500 | 50 to 150 | – | Cc1[nH]nc2c1-c1cc(F)c(NC(=O)[C@@H](NC(=O)c3ccnn3C(C)C)C(C3CC3)C3CC3)cc1CN(C(C)C)CC2 [compound 162]
100 to 500 | – | – | Cc1[nH]nc2c1-c1cnc(NC(=O)[C@@H](NC(=O)c3ccnn3C(C)C)C(C3CC3)C3CC3)cc1CN(Cc1ccccc1)CC2 [compound 184]
100 to 500 | – | – | Cc1[nH]nc2c1-c1cc(F)c(NC(=O)[C@@H](NC(=O)c3ccnn3C(C)C)C(C3CC3)C3CC3)cc1CN(Cc1ccccc1)CC2 [compound 185]
100 to 500 | ≤ 50 | – | Cc1[nH]nc2c1-c1cc(F)c(NC(=O)[C@@H](NC(=O)c3ccc(C#N)n3C)C(C3CC3)C3CC3)cc1COCC2 [compound 227]
